This note sets out measurements from PubChem BioAssay (NCI).

SMILES strings stand for the structures.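 Compound exposure: 48 hours, 5 concentrations, 96-well plates. The concentration for full growth arrest is given as TGI.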

Among the test systems are K-562 leukemia; HT29 colon; HCT-15 colon; UACC-62 melanoma; HS 578T breast; MDA-N; SNB-19 CNS; T-47D breast; MDA-MB-231 breast; IGROV1 ovarian.
Common to all, as to assay: DTP human tumour cell line panel, 48 h

As for `COc1cc(-c2cn(S(=O)(=O)c3ccc(C)cc3)c3ccccc23)nc(-c2cn(S(=O)(=O)c3ccc(C)cc3)c3ccccc23)n1`, the concentration for total growth inhibition (TGI) was above 100 µM in the assay on K-562 leukemia; 2 µM in the assay with HT29 colon; above 100 µM in the assay with HCT-15 colon; above 100 µM in the assay on UACC-62 melanoma; above 100 µM with HS 578T breast; 1.88 µM in the assay on MDA-N. The total growth inhibition concentration (TGI) is 32.1 µM in the assay on SNB-19 CNS and above 100 µM in the assay on T-47D breast.

As for `CC(=O)[C@@H]1[C@@H](OC(=O)CCC(C)COC2OC(CO)C(O)C(O)C2O)C[C@H]2[C@@H]3CC=C4C[C@@H](OC5OC(CO)C(OC6OC(C)C(O)C(O)C6O)C(O)C5OC5OC(C)C(O)C(O)C5O)CC[C@]4(C)[C@H]3CC[C@]12C` (stereo not given in full), the TGI in the assay with MDA-MB-231 breast, in the assay with K-562 leukemia, in the assay with UACC-62 melanoma, with MDA-N, in the assay on SNB-19 CNS and with T-47D breast was above 100 µM in each case.

On to `O=C(OCc1ccccc1CN1CCOCC1)c1cccc(Br)c1`, for which the TGI with IGROV1 ovarian is above 100 µM; in the assay on MDA-MB-231 breast, above 100 µM; with K-562 leukemia it was above 100 µM; with HT29 colon, 29.5 µM; with HCT-15 colon, above 100 µM; in the assay with UACC-62 melanoma it was above 100 µM. The results for the total growth inhibition concentration (TGI) with HS 578T breast, with SNB-19 CNS and in the assay on T-47D breast were above 100 µM, above 100 µM and 49.6 µM, respectively.

Consider `O=c1c2cc(-c3ccccc3)sc2nc2n1N=C(c1ccccc1)CS2`, for which the total growth inhibition concentration (TGI) in the assay with MDA-MB-231 breast was above 100 µM; in the assay with K-562 leukemia it was above 100 µM; in the assay on HCT-15 colon it was above 100 µM; in the assay with UACC-62 melanoma, 31.7 µM; in the assay on HS 578T breast, 49.4 µM; in the assay with MDA-N it was above 100 µM. The compound further displayed a TGI with T-47D breast above 100 µM.

On to `COc1ccc2nc3cc(Cl)ccc3c(NCCCN(Cc3cc(OC)c(OC)c(OC)c3)Cc3cc(OC)c(OC)c(OC)c3)c2c1`, for which the concentration for total growth inhibition (TGI) came out at 35.1 µM in the assay on IGROV1 ovarian; 10.6 µM with MDA-MB-231 breast; 3.77 µM in the assay on K-562 leukemia; 16.6 µM with HT29 colon; 32.3 µM with UACC-62 melanoma; 36.6 µM with HS 578T breast. Also, the results for the TGI with SNB-19 CNS and in the assay with T-47D breast were 35.8 µM and 47.4 µM, respectively.

For the compound `COc1cc2c(/C=C3/C(=O)N(C)c4ccccc43)c(Cl)[nH]c2cc1C`, the TGI in the assay on IGROV1 ovarian is 2.7 µM; in the assay with MDA-MB-231 breast, 3.68 µM; in the assay on HCT-15 colon, 6.34 µM; with UACC-62 melanoma, above 52.3 µM; in the assay on HS 578T breast, above 100 µM; with MDA-N it was 0.153 µM. The TGI is 14.2 µM with SNB-19 CNS and above 100 µM in the assay with T-47D breast.

Consider `COc1ccc(C2=CC(c3ccccc3)n3nnnc3N2)cc1` (stereo not given), for which the total growth inhibition concentration (TGI) with IGROV1 ovarian, in the assay on MDA-MB-231 breast, with K-562 leukemia, in the assay on HT29 colon, with HCT-15 colon and with UACC-62 melanoma was above 100 µM throughout. Also, the TGI with HS 578T breast, in the assay on SNB-19 CNS and in the assay on T-47D breast was above 100 µM each time.

Take `CCC(C)n1c(C)nc2c1C(=O)c1ccccc1C2=O` (stereo not given): the concentration for total growth inhibition (TGI) with IGROV1 ovarian, in the assay with K-562 leukemia, in the assay on HT29 colon, in the assay on HCT-15 colon, with UACC-62 melanoma and in the assay with SNB-19 CNS was above 100 µM throughout.

For the compound `Nc1sc2c(c1C(=O)c1ccc(Cl)c(Cl)c1)CCCC2`, the total growth inhibition concentration (TGI) with MDA-MB-231 breast, with K-562 leukemia, in the assay on HT29 colon, in the assay with HCT-15 colon, in the assay with UACC-62 melanoma and in the assay on HS 578T breast was above 100 µM in each case. The TGI in the assay with SNB-19 CNS and in the assay on T-47D breast was above 100 µM each time.

Consider `CCc1ccc(N=Cc2cc(OC)c(OC)c(OC)c2)cc1`, for which the TGI in the assay on IGROV1 ovarian was above 100 µM; with K-562 leukemia, 73.3 µM; in the assay with HT29 colon, above 100 µM; in the assay with HCT-15 colon, above 100 µM; in the assay with UACC-62 melanoma, above 100 µM; with SNB-19 CNS, above 100 µM.

As to `CC(C)(C)c1cc(CC2C(=O)c3ccccc3C2=O)cc(C(C)(C)C)c1O`, the TGI in the assay with IGROV1 ovarian is 26.4 µM; in the assay with MDA-MB-231 breast it was 7.74 µM; in the assay on K-562 leukemia it was 13.1 µM; in the assay with HT29 colon, 13.8 µM; with HCT-15 colon, 14.8 µM; in the assay with UACC-62 melanoma it was 17.7 µM. Also, the concentration for total growth inhibition (TGI) is 39.8 µM in the assay with HS 578T breast, above 100 µM with MDA-N and 12 µM with SNB-19 CNS.

In the case of `Cc1ccccc1C(=O)c1c(O)c2c(c(O)c1Br)CCCC2`, the concentration for total growth inhibition (TGI) in the assay with IGROV1 ovarian worked out at 42.6 µM; in the assay on K-562 leukemia, 47.8 µM; with HT29 colon it was 66.6 µM; in the assay on HCT-15 colon it was 32.9 µM; with UACC-62 melanoma, 29 µM; in the assay on SNB-19 CNS, 54.7 µM.

Take `OCC1OC(n2nc(-c3ccccc3)nc2-c2cnccn2)C(O)C(O)C1O` (stereo not given): the concentration for total growth inhibition (TGI) in the assay on IGROV1 ovarian, with MDA-MB-231 breast, in the assay on K-562 leukemia, in the assay with HT29 colon, in the assay on HCT-15 colon and in the assay with UACC-62 melanoma was above 100 µM each time. The TGI in the assay with MDA-N, with SNB-19 CNS and with T-47D breast was above 100 µM each time.

For the compound `C=C(CN(C)C)C(=O)c1ccccc1C`, the TGI in the assay with IGROV1 ovarian was above 100 µM; in the assay on K-562 leukemia, 45.9 µM; with HT29 colon, above 100 µM; with HCT-15 colon, above 63.1 µM; in the assay on UACC-62 melanoma it was above 62.3 µM; in the assay with SNB-19 CNS, above 100 µM.

In the case of `Cc1c(C#N)c2nnn(-c3ccc(Cl)cc3)c(=O)n2c1-c1ccccc1`, the concentration for total growth inhibition (TGI) in the assay with IGROV1 ovarian amounted to 16.9 µM; with MDA-MB-231 breast, 0.987 µM; in the assay on K-562 leukemia it was 20.1 µM; in the assay on HT29 colon, 0.49 µM; with HCT-15 colon it was 11.9 µM; in the assay with UACC-62 melanoma, 18.5 µM. The concentration for total growth inhibition (TGI) in the assay on HS 578T breast is above 56.3 µM; in the assay on SNB-19 CNS it was above 40.5 µM; in the assay with T-47D breast, 45.2 µM.

`CC(=O)OC12/C(=N/O)CCCCCC1c1ccccc12` (stereo not given): the TGI in the assay on K-562 leukemia, with HT29 colon, in the assay on HCT-15 colon, in the assay on UACC-62 melanoma and with SNB-19 CNS was above 100 µM throughout.

Regarding `CN(C)CCOc1cccc2c1C(=O)c1ccccc1C2=O`, the total growth inhibition concentration (TGI) in the assay on IGROV1 ovarian was found to be 43.4 µM; with K-562 leukemia, 33.7 µM; with HT29 colon, 28.7 µM; in the assay with HCT-15 colon, 27.3 µM; in the assay on UACC-62 melanoma it was 29.8 µM; with SNB-19 CNS, 66.3 µM.

One may read the TGI as the concentration giving total growth inhibition. Read a low TGI as more potent growth arrest.
